{"source": "patent US20070010484A1", "about": "“Method for treating or inhibiting the effects of injuries or diseases that result in neuronal degeneration and method for promoting neurogenesis” (YEDA RESEARCH AND DEVELOPMENT CO. LTD., priority 2003, published 2007)", "key": {"[1]": {"tested_on": "retinal ganglion cells (RGCs)", "assay": "Experimental autoimmune uveitis (EAU), RGC survival", "type": "in vivo", "conditions": "R16-immunized Lewis rats, i.p. on days 3, 6, 9, 12 and 17; counted 3 weeks after immunization; mean±SD", "procedure": "Induction of experimental autoimmune uveitis. To induce experimental autoimmune uveitis (EAU), Lewis rats were immunized with R16 (30 μg), a peptide derived from an ocular antigen IRBP emulsified in CFA containing 2.5 mg/ml M. tuberculosis. A total volume of 100 μl was injected s.c. into each rat at the root of the tail. Rats were then divided into three groups. On days 3, 6, 9, 12 and 17 after immunization the rats in the first group were injected i.p. with CSPG-DS (15 μg/rat), and rats in the second group were injected i.p. with methylprednisolone (MP. 30 mg/kg; Solu-Medrol, 125 mg/ml, Pharmacia & Upjohn, Puurs, Belgium). Rats in third group were left untreated."}, "human T cells [2]": {"tested_on": "human T cells", "assay": "T-cell chemotaxis towards SDF-1α, transwell", "type": "cell-based", "conditions": "2 h pretreatment, FN-coated transwell, 3 h, relative to untreated cells", "procedure": "Human T cells. T cells from the peripheral blood of healthy donors were isolated by negative selection using a RosetteSep™ antibody cocktail containing mabs against CD16, CD19, CD36, and CD56 (StemCell Technologies, Vancouver, BC). After incubation with the cocktail for 20 min at room temperature, blood samples were diluted in PBS with 2% fetal bovine serum, loaded on a Ficoll column (ICN Biomedical, Aurora, Ohio), and centrifuged at 1200× g for 20 min at room temperature. The cells were removed from the Ficoll column, washed, and cultured in RPMI containing antibiotics and 10% heat-inactivated FCS. T-cell chemotaxis. Migration of purified human T cells was measured with a transwell apparatus (6.5 mm diameter; Corning, New York, N.Y.) fitted with polycarbonate filters (pore size 5 μm). The filters separating the upper and lower chambers were pretreated with FN (20 μg/ml) for 1 h at 37° C. ^51[Cr]-labeled T cells were preincubated for 2 h with CSPG-DS at the indicated concentrations, and then suspended (2×10^6/ml) in RPMI containing 0.1% BSA, 0.1% L-glutamine, and antibiotics, and added to the upper chamber. The bottom chambers contained the same RPMI medium, with or without human SDF-1α (50 ng/ml). […]"}, "human T cells [3]": {"tested_on": "human T cells", "assay": "T-cell adhesion to fibronectin in presence of SDF-1α", "type": "cell-based", "conditions": "2 h pretreatment prior to SDF-1α, FN-coated plates, relative to untreated T cells", "procedure": "Human T cells. T cells from the peripheral blood of healthy donors were isolated by negative selection using a RosetteSep™ antibody cocktail containing mabs against CD16, CD19, CD36, and CD56 (StemCell Technologies, Vancouver, BC). After incubation with the cocktail for 20 min at room temperature, blood samples were diluted in PBS with 2% fetal bovine serum, loaded on a Ficoll column (ICN Biomedical, Aurora, Ohio), and centrifuged at 1200× g for 20 min at room temperature. The cells were removed from the Ficoll column, washed, and cultured in RPMI containing antibiotics and 10% heat-inactivated FCS. T-cell adhesion assays. Adhesion of T cells to FN was assayed as described (Ariel et al., 1998). Briefly, flat-bottomed microtiter well plates were precoated with CSPG or FN (10 μg/ml) and the remaining binding sites were blocked with 1% BSA. […]-labeled T cells were resuspended in RPMI medium supplemented with 1% HEPES buffer and 0.1% BSA (adhesion medium). After preincubation 2 h with CSPG-DS at the indicated concentrations, the T cells were incubated (30 min, 37° C., humidified atmosphere of 7% CO2 in air) with SDF-1α and then added to the wells. […] Adherent cells were lysed with lysis buffer (1 M NaOH, 0.1% Triton X-100 in H2O), removed, and counted with a γ-counter (Packard, Downers Grove, Ill.)."}, "SOCS-3": {"tested_on": "SOCS-3", "assay": "Western blot of SOCS-3 in T cells", "type": "cell-based, human", "conditions": "T cells pretreated with CSPG-DS, relative to untreated T cells", "procedure": "Western blot analysis of T-cell nuclear extracts. Purified T cells (5×10^6) were preincubated for 2 h with different concentrations of CSPG-DS. The cells were then replated at the same CSPG-DS concentration on 24-well plates pre-coated for 24 h with anti-CD3 mAb. The T cells were lysed in 10 mM HEPES, 1.5 mM MgCl2, 1 mM dithiothreitol, 1 mM PMSF, and 0.5% Nonidet P-40 (buffer A). The lysates were incubated on ice for 10 min and centrifuged at 2000 rpm for 10 min at 4° C. The supernatants (cytoplasmic extracts) were transferred and the pellets (nuclei) were suspended in buffer containing 30 mM HEPES, 450 mM NaCl, 25% glycerol, 0.5 mM EDTA, 6 mM dithiothreitol, 12 mM MgCl2 1 mM PMSF, 10 μg/ml leupeptin, 10 μg/ml pepstatin, and 1% phosphatase inhibitor cocktail (buffer B), and the suspension was incubated on ice for 30 min. The lysates were cleared by centrifugation (30 min, 14×10^3 rpm, 4° C.), and the resulting supernatants were analyzed for protein content. Sample buffer was added, the mixture was boiled, and the samples containing equal amounts of proteins were separated on 10% SDS-PAGE gel and transferred to nitrocellulose membranes. […]"}, "IL-4 and IL-13": {"tested_on": "IL-4 and IL-13", "assay": "RT-PCR of IL-4 and IL-13 mRNA in activated T cells", "type": "cell-based, human", "conditions": "2 h pretreatment, anti-CD3 activation 3 h; similar after 6 or 12 h", "procedure": "RNA purification, RT-PCR, and CDNA synthesis. After pretreatment with the indicated concentrations of CSPG-DS for 2 h, […], lysed with TRI reagent (MRC, Cincinnati, Ohio), and total cellular RNA was purified from lysates using the RNeasy kit (Qiagen, Hilden, Germany) according to the manufacturer's instructions. RNA was converted to cDNA using SuperScript II (Promega, Madison, Wis.), as recommended by the manufacturer. The expression of specific mRNAs was assayed by RT-PCR, using the messageScreen™ Human Th1/Th2 Cytokine Set 1 Multiplex PCR® kits (BioSource International, Camarillo, Calif.), according to the manufacturer's instructions."}}, "data": [{"smiles": "CC(=O)N[C@H]1C(O)O[C@H](COS(=O)(=O)O)[C@H](O)[C@@H]1O[C@@H]1OC(C(=O)O)=C[C@H](O)[C@H]1O", "note": "(stereo partly drawn) [CSPG-DS, 2-acetoamido-2-deoxy-3-O-(β-D-gluco-4-enepyranosyluronic acid)-6-O-sulfo-D-galactose]", "values": [{"measurement": "RGC loss relative to normal rats", "setting": "[1]", "result": "24±9", "unit": "%"}, {"measurement": "T-cell migration towards SDF-1α", "setting": "human T cells [2]", "result": "reduced"}, {"measurement": "T-cell adhesion", "setting": "human T cells [3]", "result": "significantly reduced"}, {"measurement": "SOCS-3 level", "setting": "SOCS-3", "result": "increase"}, {"measurement": "mRNA levels of Th2-associated cytokines IL-4 and IL-13", "setting": "IL-4 and IL-13", "result": "not affected"}]}]}
